Assay [1] has as its target T1, CRTH2 (Homo sapiens, UniProt Q9Y5Y4).
T1 construct: expressed in transfected cells; host or cells: CHO cells
T1 sequence (Q9Y5Y4 1-395): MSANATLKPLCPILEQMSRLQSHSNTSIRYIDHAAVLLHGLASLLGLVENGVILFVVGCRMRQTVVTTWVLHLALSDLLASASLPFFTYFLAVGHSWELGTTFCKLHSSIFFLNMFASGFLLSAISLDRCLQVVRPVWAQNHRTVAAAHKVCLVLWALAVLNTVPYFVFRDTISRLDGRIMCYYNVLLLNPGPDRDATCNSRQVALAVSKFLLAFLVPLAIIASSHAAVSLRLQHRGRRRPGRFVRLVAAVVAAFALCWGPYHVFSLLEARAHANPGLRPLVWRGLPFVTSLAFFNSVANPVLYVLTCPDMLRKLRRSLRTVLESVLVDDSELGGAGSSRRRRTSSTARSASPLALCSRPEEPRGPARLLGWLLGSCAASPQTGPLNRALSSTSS
The assay can be described thus: Cellular Dielectric Spectroscopy in CHO-CRTH2 cells. The format is cell-based. The conditions noted are these: for IC50: fixed concentration of PGD2 (EC80), read-out: IC50(μM) (CDS, antagonist); for EC50: agonist activity without PGD2, read-out: EC50(μM) (CDS, partial agonist); for Emax: agonist activity without PGD2, read-out: EMax (CDS, partial agonist). On the procedure:
Cellular Dielectric Spectroscopy (CDS) is a label-free technology based on the measurement of complex impedance changes (delta Z or dZ). Impedance (Z) is related to the ratio of voltage to current as described by Ohm's law (Z=V/I). In order to measure the changes in impedance that occur in response to receptor stimulation, mammalian cells are seeded onto a custom 96-well microtiter plate that contains electrodes at the bottom of each well Key contributors to the impedance measurements are changes in cell-substrate adherence, changes in cell shape and volume, and changes in cell-cell interactions. These factors individually or collectively affect the flow of current, influencing the magnitude and characteristics of the signal measured. G-protein coupled receptors ligand-induced activity can be measured using this technology and specific G protein coupling can be identified. Activities of reference agonist and antagonist molecules of CRTH2 have been measured using this assay and similar results were obtained compared to different functional assays.
CHO—CRTH2 cells are cultured in HAM's F12 (Lonza, Switzerland) supplemented with 10% foetal calf serum (PAA, Australia) and 400 μg/ml Geneticin. 100000 cells/well are seeded in standard 96 W Microplates (MDS Analytical Technologies) and incubated at 37° C. in 5% CO2 for 24 hours. Cells are washed twice with 135 μl of cell key buffer (Hank's Balanced Salt Solution 1× (HBSS) (Invitrogen) supplemented with 10 mM HEPES pH 7.4 in presence of 1% DMSO). […] Results are expressed as the amplitude between the highest and the lowest signal produced (max-min). Basal and maximum activities are measured, respectively in absence or presence of PGD2 (EC80).

Assay [2] addresses T2, CRTH2 (DP2) (Homo sapiens, UniProt Q9Y5Y4).
T2 construct: host or cells: CHO cells
T2 sequence (Q9Y5Y4 1-395): T1 sequence (Q9Y5Y4 1-395)
The experiment in a line: Radioligand binding Scintillation Proximity Assay ([3H]PGD2, hCRTH2-CHO cell membranes). To be noted: 1.5 nM [3H]PGD2, hCRTH2-CHO cell membranes, SPA. Summed up: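 Membranes from CHO cells stably expressing human CRTH2, made by nitrogen cavitation and differential centrifugation. Compounds competed with [3H]PGD2 at 1% DMSO for 90 min with agitation at room temperature. Non-specific binding taken with 10 μM PGD2.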
(SPA uses beads or plates that emit light when radiolabelled molecules are held near them.)

Assay [3] concerns the target T1, CRTH2. The experiment in a line: [35S]GTPγS binding assay on CHO-CRTH2 cell membranes. The assay is classed as biochemical. To be noted: for Emax: without addition of PGD2, 100% of Emax being the activity measured by the addition of 1 μM of PGD2. On the procedure:
Adherent CHO cells expressing hCRTH2 (Euroscreen, Belgium) were cultured in 225 cm^2 cell culture flasks (Corning, USA) in 30 ml of medium. After two rinses of phosphate buffered saline (PBS), cells were harvested in 10 ml of PBS containing 1 mM EDTA, centrifuged at 500×g for 5 min at 4° C. and frozen at −80° C. The pellet was re-suspended in 50 mM Tris-HCl, pH 7.4, 2 mM EDTA, 250 mM Sucrose, containing protease inhibitor cocktail tablets, (Complete EDTA-free, Roche, Germany) and incubated 30 min at 4° C. Cells were disrupted by nitrogen cavitation (Parr Instruments, USA) at 4° C. (800 p.s.i. for 30 min), and centrifuged at 500×g for 10 min at 4° C. Pellet containing nuclei and cellular debris was discarded and supernatant was centrifuged 60 min at 4° C. at 45000×g. Membrane pellet was re-suspended in storage buffer (10 mM HEPES/KOH pH 7.4, 1 mM EDTA, 250 mM sucrose, protease inhibitor cocktail tablets) using Dounce homogenization and frozen in liquid nitrogen, and stored at 80° C.
The [^35S]GTPγS assay measures the increase in guanine nucleotide exchange at G-proteins in cell membranes, resulting from agonist (PGD2) binding to CRTH2. […] Briefly, Compounds of Formula (I) are incubated in 96-well scintillating white polystyrene plates (Perkin Elmer, USA) in a final volume of 200 μl containing 20 mM HEPES/KOH pH 7.4, 3 mM MgCl2, 10 μg/ml Saponin, 5 μM GDP, 75 mM NaCl and 2% of dimethylsulphoxide (DMSO). […] After 60 min incubation at 30° C., reaction is stopped by centrifugation at 700×g, at 4° C. for 10 minutes and supernatant is removed. […] For IC50 determination, increasing concentrations of compounds are incubated in presence of a fixed concentration of PGD2 (EC80). For EC50 measurements, compounds are incubated without addition of PGD2. Basal [^35S]GTPγS activity is determined without addition of any ligands or compounds. 100% [^35S]GTPγS activity is measured by the addition of 1 μM of PGD2.
In general terms: GTPγS resists hydrolysis and so accumulates on activated G proteins.

Molecules are shown by their SMILES.

For `CS(=O)(=O)c1ccc(CN(C(=O)c2ccccc2)c2cc(F)cc(-c3nnn[nH]3)c2)cc1` [Example 108, N-[3-fluoro-5-(1H-tetrazol-5-yl)phenyl]-N-[4-(methylsulfonyl)benzyl]benzamide], the IC50 in assay [1] was found to be 0.049 µM; in assay [2], 2.6 nM; in assay [3] (in presence of a fixed concentration of PGD2 (EC80), read-out: IC50 ([35S]GTPγS, antagonist)), 22.4 nM. The Emax in assay [3] was -10.1%.
`CC(C)CC(=O)N(Cc1ccc(S(C)(=O)=O)cc1)c1cc(F)cc(-c2nnn[nH]2)c1` [Example 104, N-[3-fluoro-5-(1H-tetrazol-5-yl)phenyl]-3-methyl-N-[4-(methylsulfonyl)benzyl]butanamide]: in assay [1], the EC50 stood at 0.0011 µM and the Emax turned out to be 27%. The IC50 in assay [2] was 3.7 nM.
The like results for `CS(=O)(=O)c1ccc(CN(C(=O)C2CCCC2)c2cc(F)cc(-c3nnn[nH]3)c2)cc1` [Example 105, N-[3-fluoro-5-(1H-tetrazol-5-yl)phenyl]-N-[4-(methylsulfonyl)benzyl]cyclopentanecarboxamide] were, in that order, 0.0024 µM, 22% and 6.2 nM.
`CCC(=O)N(Cc1cccc(OC)c1)c1cc(F)cc(-c2nnn[nH]2)c1` [Example 39, N-[3-fluoro-5-(1H-tetrazol-5-yl)phenyl]-N-(3-methoxybenzyl)propanamide] gave an IC50 in assay [2] of 9.6 nM. Further, in assay [3], the Emax is -11.2%.
Take `CCC(=O)N(Cc1cccc(O)c1)c1cc(F)cc(-c2nnn[nH]2)c1` [Example 84, N-[3-fluoro-5-(1H-tetrazol-5-yl)phenyl]-N-(3-hydroxybenzyl)propanamide]: the Emax in assay [3] is -17.1%.
As to `CCCCC(=O)N(Cc1cccn1S(=O)(=O)c1ccccc1)c1cc(-c2nnn[nH]2)ccc1F` [Example 4, N-[2-fluoro-5-(1H-tetrazol-5-yl)phenyl]-N-{[1-(phenylsulfonyl)-1H-pyrrol-2-yl]methyl}pentanamide], the IC50 in assay [1] amounted to 0.22 µM; in assay [2], 51 nM.
With `CCC(=O)N(Cc1ccc(-c2c(C)cccc2C)cc1)c1cc(F)cc(-c2nnn[nH]2)c1` [Example 100], in assay [2], the IC50 came out at 8.3 nM. The Emax in assay [3] is -16.7%.
As to `CS(=O)(=O)c1ccc(CN(C(=O)Cc2ccccc2)c2cc(F)cc(-c3nnn[nH]3)c2)cc1` [Example 109, N-[3-fluoro-5-(1H-tetrazol-5-yl)phenyl]-N-[4-(methylsulfonyl)benzyl]-2-phenylacetamide], in assay [1], the EC50 turned out to be 0.0012 µM and the Emax came to 32%. Also, the IC50 in assay [2] came out at 1 nM.
In turn, `CCC(=O)N(Cc1c(C)noc1-c1ccccc1)c1cccc(-c2nnn[nH]2)c1` [Example 24, N-[(3-methyl-5-phenylisoxazol-4-yl)methyl]-N-[3-(1H-tetrazol-5-yl)phenyl]propanamide] came in with an IC50 in assay [2] of 2180 nM.
In turn, `CC(C)C(=O)N(Cc1ccc(S(C)(=O)=O)cc1)c1cc(F)cc(-c2nnn[nH]2)c1` [Example 117, N-[3-fluoro-5-(1H-tetrazol-5-yl)phenyl]-2-methyl-N-[4-(methylsulfonyl)benzyl]propanamide] showed a 50% inhibitory concentration (IC50) in assay [2] of 19 nM.
Regarding `CCC(=O)N(Cc1ccc(OC)cc1)c1cccc(-c2nnn[nH]2)c1` [Example 26, N-(4-methoxybenzyl)-N-[3-(1H-tetrazol-5-yl)phenyl]propanamide], the concentration for half-maximal inhibition (IC50) in assay [2] was found to be 268 nM.
The same measure, in the same setting: then `CCCC#Cc1cccc(CN(C(=O)CC)c2cccc(-c3nnn[nH]3)c2)c1` [Example 49, N-(3-pent-1-yn-1-ylbenzyl)-N-[3-(1H-tetrazol-5-yl)phenyl]propanamide], with 618 nM; and `CCC(=O)N(Cc1cccc(OC)c1)c1cccc(-c2nnn[nH]2)c1` [Example 25, N-(3-methoxybenzyl)-N-[3-(1H-tetrazol-5-yl)phenyl]propanamide], with 444 nM; and `CCC(=O)N(Cc1ccc(-c2cccnc2)cc1)c1cc(F)cc(-c2nnn[nH]2)c1` [Example 90, N-[3-fluoro-5-(1H-tetrazol-5-yl)phenyl]-N-(4-pyridin-3-ylbenzyl)propanamide], with 140 nM.
On the same count and under the same terms, then `CCC(=O)N(Cc1cccc(F)c1)c1cccc(-c2nnn[nH]2)c1` [Example 32, N-(3-fluorobenzyl)-N-[3-(1H-tetrazol-5-yl)phenyl]propanamide], with 1690 nM.
On the same count and under the same terms, then `CCC(=O)N(Cc1ccc2c(c1)OCO2)c1cccc(-c2nnn[nH]2)c1` [Example 34, N-(1,3-benzodioxol-5-ylmethyl)-N-[3-(1H-tetrazol-5-yl)phenyl]propanamide], with 147 nM; and `CCCCC(=O)N(Cc1ccsc1)c1cccc(-c2nnn[nH]2)c1` [Example 21, N-[3-(1H-tetrazol-5-yl)phenyl]-N-(3-thienylmethyl)pentanamide], with 759 nM.
Turning to `CCC(=O)N(Cc1ccc(-c2ccccc2)cc1)c1cc(F)cc(-c2nnn[nH]2)c1` [Example 97, N-(biphenyl-4-ylmethyl)-N-[3-fluoro-5-(1H-tetrazol-5-yl)phenyl]propanamide], in assay [2], the IC50 worked out at 70 nM.
Consider `CCC(=O)N(Cc1cccc(-c2c(C)noc2C)c1)c1cccc(-c2nnn[nH]2)c1` [Example 61, N-[3-(3,5-dimethylisoxazol-4-yl)benzyl]-N-[3-(1H-tetrazol-5-yl)phenyl]propanamide], for which the IC50 in assay [2] was determined as 305 nM.
The compound `CCC(=O)N(Cc1ccc(-c2c(C)nn(C)c2C)cc1)c1cc(F)cc(-c2nnn[nH]2)c1` [Example 94, N-[3-fluoro-5-(1H-tetrazol-5-yl)phenyl]-N-[4-(1,3,5-trimethyl-1H-pyrazol-4-yl)benzyl]propanamide] had a concentration for half-maximal inhibition (IC50) in assay [2] of 21 nM.
On the same count and under the same terms, to `CCC(=O)N(Cc1nonc1C)c1cccc(-c2nnn[nH]2)c1` [Example 44, N-[(4-methyl-1,2,5-oxadiazol-3-yl)methyl]-N-[3-(1H-tetrazol-5-yl)phenyl]propanamide] belongs 2100 nM; to `CCC(=O)N(Cc1ccccc1)c1cccc(-c2nnn[nH]2)c1` [Example 30, N-benzyl-N-[3-(1H-tetrazol-5-yl)phenyl]propanamide], 2250 nM.
As to `CCC(=O)N(Cc1ccc(-c2ccccc2C)cc1)c1cc(F)cc(-c2nnn[nH]2)c1` [Example 102, N-[3-fluoro-5-(1H-tetrazol-5-yl)phenyl]-N-[(2′-methylbiphenyl-4-yl)methyl]propanamide], in assay [2], the 50% inhibitory concentration (IC50) was 8.9 nM.

As usually defined, the IC50 is the concentration that inhibits the measured activity by half. By Emax is commonly meant the greatest response seen or fitted, relative to the assay's reference. The term EC50 denotes the concentration that produces a half-maximal response.

Source of the values: US20120115869A1, “TETRAZOLE DERIVATIVES” (MERCK SERONO S.A., priority 2009, published 2012).
